Measured values: US6737383B1, “Herbicidal oxadiazolidines” (priority 1999, dated 2004)

Columns and labels:
[1] = system: bamyardgrass; experiment: Test B flood test barnyardgrass; type: in vivo, Echinochloa crus-galli
In short: (§1)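 Each value is a visual injury score relative to controls, with 10 meaning complete control and 0 no effect. Evaluation took place twelve to sixteen days after the 2-leaf-stage plants were treated and kept in the greenhouse.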

[2] = system: sugar beet; experiment: Test B pre/postemergence sugar beet; type: in vivo, Beta vulgaris
In short: (§2)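 Response is a visual 0-to-10 score relative to untreated plants, where 0 means no effect and 10 means complete control, taken twelve to sixteen days after application. Treatments went onto soil at planting and onto foliage of 1- to 4-leaf plants, using a surfactant-containing non-phytotoxic solvent.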

[3] = system: blackgrass; experiment: Test B pre/postemergence blackgrass; type: in vivo, Alopecurus myosuroides
In short: as §2

[4] = system: morningglory; experiment: Test B pre/postemergence morningglory; type: in vivo, Ipomoea hederacea
In short: as §2

[5] = system: surinam grass; experiment: Test B pre/postemergence surinam grass; type: in vivo, Brachiaria decumbens
In short: as §2

[6] = system: bedstraw; experiment: Test B pre/postemergence bedstraw; type: in vivo, Galium aparine
In short: as §2

[7] = system: rice; experiment: Test B flood test rice; type: in vivo, Oryza sativa
In short: as §1

[8] = system: purple nutsedge; experiment: Test B pre/postemergence purple nutsedge; type: in vivo, Cyperus rotundus; details: Postemergence
In short: as §2

[9] = system: corn; experiment: Test B pre/postemergence corn; type: in vivo, Zea mays
In short: as §2

[10] = system: pigweed; experiment: Test B pre/postemergence pigweed; type: in vivo, Amaranthus retroflexus
In short: as §2

[11] = system: wild oat; experiment: Test B pre/postemergence wild oat; type: in vivo, Avena fatua
In short: as §2

[12] = system: cocklebur; experiment: Test B pre/postemergence cocklebur; type: in vivo, Xanthium strumarium
In short: as §2

[13] = system: smallflower flatsedge; experiment: Test B flood test smallflower flatsedge; type: in vivo, Cyperus difformis
In short: as §1

[14] = system: rape; experiment: Test B pre/postemergence rape; type: in vivo, Brassica napus
In short: as §2

[15] = system: soybean; experiment: Test B pre/postemergence soybean; type: in vivo, Glycine max
In short: as §2

[16] = system: velvetleaf; experiment: Test B pre/postemergence velvetleaf; type: in vivo, Abutilon theophrasti
In short: as §2

[17] = Rate 62 g/ha, headed Pre-emergence (flood test species), scale 0 to 10 (0 no effect, 10 complete control)
[18] = Rate 125 g/ha, Pre-emergence, flood test species, scale 0 to 10 where 0 is no effect and 10 is complete control
[19] = Rate 250 g/ha, Pre-emergence, flood-test species, scale 0 to 10, 0 is no effect, 10 is complete control
[20] = Rate 500 g/ha, Pre-emergence, flood test species, scale 0 to 10 (0 no effect, 10 complete control)
[21] = Preemergence, Rate 62 g/ha, scale of 0 to 10 where 0 is no effect and 10 is complete control
[22] = Preemergence, Rate 250 g/ha, scale of 0 to 10 where 0 is no effect and 10 is complete control
[23] = Preemergence, Rate 500 g/ha, scale of 0 to 10 where 0 is no effect and 10 is complete control
[24] = Rate 62 g/ha, Postemergence, scale of 0 to 10 where 0 is no effect and 10 is complete control
[25] = Rate 125 g/ha, Postemergence, scale 0 to 10
[26] = Rate 125 g/ha, Preemergence, scale of 0 to 10 where 0 is no effect and 10 is complete control
[27] = Rate 500 g/ha, Postemergence, scale 0 to 10, 0 no effect, 10 complete control

Cc1ccccc1-n1c(=O)on(C(=O)N(c2ccc(N(C)C)cc2)C(C)C)c1=O [Compound 237]
Barnyardgrass plant response rating [1, 17]: 0 | Barnyardgrass plant response rating [1, 18]: 0 | Barnyardgrass plant response rating [1, 19]: 0 | Barnyardgrass plant response rating [1, 20]: 0 | Sugarbeets plant response rating [2, 21]: 0 | Sugarbeets plant response rating [2, 22]: 0 | Plant response rating, Sugarbeets [2, 23]: 0 | Sugarbeets plant response rating [2, 24]: 0 | Sugarbeets plant response rating [2, 25]: 0 | Sugarbeets plant response rating [2, 26]: 0 | Plant response rating (0 to 10; 0 is no effect, 10 is complete control), Sugarbeets ([2]; Rate 250 g/ha, Postemergence): 0 | Sugarbeets plant response rating [2, 27]: 0 | Blackgrass plant response rating [3, 21]: 0 | Blackgrass plant response rating [3, 22]: 0 | Plant response rating, Blackgrass [3, 23]: 0 | Blackgrass plant response rating [3, 24]: 0 | Blackgrass plant response rating [3, 25]: 0 | Blackgrass plant response rating [3, 26]: 0 | Plant response rating (0 to 10; 0 is no effect, 10 is complete control), Blackgrass ([3]; Rate 250 g/ha, Postemergence): 0 | Blackgrass plant response rating [3, 27]: 0 | Morningglory plant response rating [4, 21]: 0 | Morningglory plant response rating [4, 22]: 0 | Plant response rating, Morningglory [4, 23]: 2 | Morningglory plant response rating [4, 24]: 2 | Morningglory plant response rating [4, 25]: 2 | Morningglory plant response rating [4, 26]: 0 | Plant response rating (0 to 10; 0 is no effect, 10 is complete control), Morningglory ([4]; Rate 250 g/ha, Postemergence): 3 | Morningglory plant response rating [4, 27]: 6 | B. signalgrass plant response rating [5, 21]: 0 | B. signalgrass plant response rating ([5]; Preemergence, Rate 250 g/ha, scale 0 to 10, 0 is no effect, 10 is complete control): 0 | Plant response rating, B. signalgrass [5, 23]: 0 | B. signalgrass plant response rating [5, 24]: 0 | B. signalgrass plant response rating ([5]; Rate 125 g/ha, Postemergence, scale 0 (no effect) to 10 (complete control)): 0 | B. signalgrass plant response rating [5, 26]: 0 | Plant response rating (0 to 10; 0 is no effect, 10 is complete control), B. signalgrass ([5]; Rate 250 g/ha, Postemergence): 0 | B. signalgrass plant response rating [5, 27]: 0 | Bedstraw plant response rating [6, 21]: 0 | Bedstraw plant response rating [6, 22]: 0 | Plant response rating, Bedstraw [6, 23]: 0 | Bedstraw plant response rating [6, 24]: 0 | Bedstraw plant response rating [6, 25]: 0 | Bedstraw plant response rating [6, 26]: 0 | Plant response rating (0 to 10; 0 is no effect, 10 is complete control), Bedstraw ([6]; Rate 250 g/ha, Postemergence): 2 | Bedstraw plant response rating [6, 27]: 3 | Rice plant response rating [7, 17]: 0 | Rice plant response rating [7, 18]: 0 | Rice plant response rating [7, 19]: 0 | Rice plant response rating [7, 20]: 0 | Nutsedge plant response rating ([8]; Rate 62 g/ha, scale of 0 to 10 where 0 is no effect and 10 is complete control): 0 | Nutsedge plant response rating ([8]; Rate 125 g/ha, scale 0 to 10): 0 | Plant response rating (0 to 10; 0 is no effect, 10 is complete control), Nutsedge ([8]; Rate 250 g/ha): 0 | Nutsedge plant response rating ([8]; Rate 500 g/ha, scale 0 to 10, 0 no effect, 10 complete control): 0 | Corn plant response rating [9, 21]: 0 | Corn plant response rating [9, 22]: 0 | Plant response rating, Corn [9, 23]: 0 | Corn plant response rating [9, 24]: 0 | Corn plant response rating [9, 25]: 0 | Corn plant response rating [9, 26]: 0 | Plant response rating (0 to 10; 0 is no effect, 10 is complete control), Corn ([9]; Rate 250 g/ha, Postemergence): 0 | Corn plant response rating [9, 27]: 0 | Redroot pigweed plant response rating [10, 21]: 0 | Redroot pigweed plant response rating [10, 22]: 0 | Plant response rating, Redroot pigweed [10, 23]: 0 | Redroot pigweed plant response rating [10, 24]: 0 | Redroot pigweed plant response rating [10, 25]: 0 | Redroot pigweed plant response rating [10, 26]: 0 | Plant response rating (0 to 10; 0 is no effect, 10 is complete control), Redroot pigweed ([10]; Rate 250 g/ha, Postemergence): 2 | Redroot pigweed plant response rating [10, 27]: 3 | Wild oats plant response rating [11, 21]: 0 | Wild oats plant response rating [11, 22]: 0 | Plant response rating, Wild oats [11, 23]: 0 | Wild oats plant response rating [11, 24]: 0 | Wild oats plant response rating [11, 25]: 0 | Wild oats plant response rating [11, 26]: 0 | Plant response rating (0 to 10; 0 is no effect, 10 is complete control), Wild oats ([11]; Rate 250 g/ha, Postemergence): 0 | Wild oats plant response rating [11, 27]: 0 | Cocklebur plant response rating [12, 21]: 0 | Cocklebur plant response rating [12, 22]: 0 | Plant response rating, Cocklebur [12, 23]: 0 | Cocklebur plant response rating [12, 24]: 0 | Cocklebur plant response rating [12, 25]: 0 | Cocklebur plant response rating [12, 26]: 0 | Plant response rating (0 to 10; 0 is no effect, 10 is complete control), Cocklebur ([12]; Rate 250 g/ha, Postemergence): 0 | Cocklebur plant response rating [12, 27]: 0 | S. Flatsedge plant response rating [13, 17]: 0 | S. Flatsedge plant response rating [13, 18]: 0 | S. Flatsedge plant response rating [13, 19]: 0 | S. Flatsedge plant response rating [13, 20]: 0 | Rape plant response rating [14, 21]: 0 | Rape plant response rating [14, 22]: 0 | Plant response rating, Rape [14, 23]: 0 | Rape plant response rating [14, 24]: 0 | Rape plant response rating [14, 25]: 0 | Rape plant response rating [14, 26]: 0 | Plant response rating (0 to 10; 0 is no effect, 10 is complete control), Rape ([14]; Rate 250 g/ha, Postemergence): 0 | Rape plant response rating [14, 27]: 0 | Soybean plant response rating [15, 21]: 0 | Soybean plant response rating [15, 22]: 0 | Plant response rating, Soybean [15, 23]: 0 | Soybean plant response rating [15, 24]: 0 | Soybean plant response rating [15, 25]: 1 | Soybean plant response rating [15, 26]: 0 | Plant response rating (0 to 10; 0 is no effect, 10 is complete control), Soybean ([15]; Rate 250 g/ha, Postemergence): 1 | Soybean plant response rating [15, 27]: 1 | Velvetleaf plant response rating [16, 21]: 0 | Velvetleaf plant response rating [16, 22]: 0 | Plant response rating, Velvetleaf [16, 23]: 0 | Velvetleaf plant response rating [16, 24]: 0 | Velvetleaf plant response rating [16, 25]: 0 | Velvetleaf plant response rating [16, 26]: 0 | Plant response rating (0 to 10; 0 is no effect, 10 is complete control), Velvetleaf ([16]; Rate 250 g/ha, Postemergence): 0 | Velvetleaf plant response rating [16, 27]: 2
